Measurements taken from patent publication US12551543B2, “Vaccine compositions comprising C—C motif chemokine 22 (CCL22) or fragments thereof” (IO BIOTECH APS, priority 2015, dated 2026).
Entries after “also recorded” stand apart in the source; their conditions may differ. Where two headings read alike, the source gives them in different places.

Key:
C57BL/6 mice = experiment: Murine CCL22 peptide vaccination, IFNγ ELISPOT on splenocytes; assay type: in vivo; conditions: 100 μg peptide s.c. in IFA/PBS once a week for 3 weeks
Method: Murine CCL22 peptide (TAG Copenhagen, Denmark) stocks of 10 mM (mCCL22Short) and 5 mM (mCCL22Long) were made in DMSO. Mice were vaccinated subcutaneously (s.c) on the lower back with 100 μg peptide in 1:1 (vol/vol) IFA/PBS emulsion in a total volume of 100 μl. Mice were vaccinated once a week for 3 weeks and sacrificed one week after the last vaccination.
Spleens from sacrificed mice were removed and smashed through a cell strainer ([…]) and washed with R10 media: RPMI 1640 (Gibco® by Life technologies™) with 10% FCS (Gibco® by Life technologies™). Red blood cells lysed by adding red blood cell lysis buffer for 2 min, followed by two washes with R10 with 10% fetal bovine serum.
ELISPOT was performed as described by the manufacturer's instruction. In short, 96-well MSIPN4W ELISPOT plate (Millipore) were coated with mouse IFNγ-specific capture Ab (AN18: Mabtech) in a concentration of 12 μg/ml in PBS overnight at 4° C., 8×10^5 or 4×10^5 splenocyteslwell were seeded in the plate in triplicates. To investigate IFNγ response to murine CCL22 peptides, cells were incubated with different peptides (5 μM) or R10 as control for 18-20 h at 37° C. ELISPOT was developed with mouse IFNγ-specific detection Ab (R4-6A2-biotin; Mabtech) in a concentration of 1 μg/ml in Buffer (PBS, 0.5% BSA and NaN3) for 2 h at room temperature, followed by 6 washes in PBS. […]

T2 cells = experiment: 51Cr-release cytotoxicity assay, peptide-pulsed T2 cells; assay type: cell-based; conditions: for T-cell avidity of pCCL223-12-specific T cells, peptide titration: effector to target ratio 3:1
Method: (§1) Conventional ^51Cr-release assays for CTL-mediated cytotoxicity were carried out as described elsewhere (Andersen et al., 1999). Target cells were T2-cells (ATCC), HLA-A2^+ EBV transformed B-cell line (RPM16666), AML cells (UKE-1 and THP1) colon cancer cells (SW480), melanoma cell line (FM55-M2), Breast cancer cells MDA-MB231 with or without IFN-γ (100 U/m1) addition for 2 days prior to performing cytotoxicity assay. For peptide titration cytotoxicity assay, T2 cells were used as target cells and a constant effector to target ratio of 3:1 was used for all peptide concentrations.

[1] = tested on: CCL22-specific T cell cultures; experiment: Intracellular staining for IFNγ and TNFα after peptide stimulation; assay type: cell-based, human
Method: (§2) The following day IL-7 and IL-12 (PeproTech, London, UK) were added. […] The day after peptide stimulation IL-2 (PeproTech, London, UK) was added. 4 DC stimulations and 1 PBMC stimulation were made in total.
The cells were then stained for surface markers, then washed and permeabilized by using Fixation/Permeabilization and Permeabilization Buffer (eBioscience), according to manufacturer's instructions. Antibodies used: IFNγ-PE-Cy7, TNFa-APC, CD4-PerCP, CD8− FITC (all from BD Biosciences). Dead cells were stained using LIVE/DEAD® Fixable Near-IR Dead Cell Stain Kit according to manufacturer's instructions.

PBMCs = experiment: Cytokine expression LUMINEX of PBMC supernatants after peptide stimulation; assay type: cell-based, human
Method: PBMCs from healthy donors or cancer patients were thawed and rested for 4 hours in X-VIVO 15™ (Lonza) before being set up into 24-well plates with 2×10^6 cells/well in X-Vivo medium with 5% human serum. […] Appropriate amount of DMSO was added to HIV control wells to control for the solvent of pCCL223-12 peptide. The following day, IL-2 was added to a final concentration of 120 U/ml (360 U for ascites cells stimulation). Supernatant samples were collected after 2 or 7 days of culture. Cells were stimulated twice before being tested in ELISPOT assay. Cell culture supernatants from PBMCs or ascites cells stimulated with CCL22-3 or HIV peptide were analyzed for IFN-γ, TNF-α, IL-6, IL-10 and 1 L-1β using Bio-Plex Pro™ Human Chemokine assays from Bio-Rad. […] Wilcoxon-signed rank test was used for statistical analysis of IL-10 expression due to multiple zero values.

[2] = tested on: PBMCs from a melanoma patient; experiment: HLA-A2/peptide tetramer staining; assay type: cell-based, human
Method: as §2
HLA-A2 multimers were produced in house by using a previously described MHC peptide exchange technology (15).

HLA-negative K562 cells = experiment: 51Cr-release assay, non-transfected K562 cells pulsed with peptide; assay type: cell-based
Method: as §1, with “assay.” for “assay. For peptide titration cytotoxicity assay, T2 cells were used as target cells and a constant effector to target ratio of 3:1 was used for all peptide concentrations.”

CCL22 [3] = experiment: CCL22 ELISA of PBMC supernatants after peptide stimulation; assay type: cell-based, human
Method: Cell culture supernatants from PBMC, cancer cell lines and ascites cell cultures as well as siRNA transfected THP-1 cells were analyzed using Human CCL22/MDC DuoSet ELISA kit (R&D Systems) according to manufacturer's instructions.
PBMCs from healthy donors or cancer patients were thawed and rested for 4 hours in X-VIVO 15™ (Lonza) before being set up into 24-well plates with 2×10^6 cells/well in X-Vivo medium with 5% human serum. […] Appropriate amount of DMSO was added to HIV control wells to control for the solvent of pCCL223-12 peptide. The following day, IL-2 was added to a final concentration of 120 U/ml (360 U for ascites cells stimulation). Supernatant samples were collected after 2 or 7 days of culture. Cells were stimulated twice before being tested in ELISPOT assay.

[4] = tested on: PBMCs from cancer patients and healthy donors; experiment: IFNγ ELISPOT on PBMCs; assay type: cell-based, human
Method: In the present study the ELISPOT was performed according to the guidelines provided by CIP (http://cimt.eu/cimt/files/dl/cip guidelines.pdf). The ELISPOT assay was used to quantify peptide epitope specific effector cells that release cytokines (IFNγ, TNFα, IL-17A or IL-10) as described previously (Sorensen et al., 2012). In some experiments, PBMCs were stimulated once in vitro with peptide prior to analysis. In some experiments, 104 autologous DCs were added to the wells as antigen presenting cells. The spots were counted using the ImmunoSpot Series 2.0 Analyzer (C.T.L.—Europe, Bonn, Germany). In some experiments, CD4+ cells were isolated by EasySep human CD4^+ T cell enrichment kit (Stem Cell technologies, Grenoble, France) following manufacturers' instructions. This yielded highly pure cultures (>97% CD4+), which was confirmed by staining with surface antibodies as described below for intracellular cytokine staining (ICS) and flow cytometry (FCM).
PBMCs were placed in the bottom of ELISPOT plate (nitrocellulose bottomed 96-well plates by MultiScreen MAIP N45; Millipore) pre-coated with IFN-γ capture Ab (Mabtech) and the peptides were added at 5 μg/ml. PBMCs from each patient were set up in duplicates or triplicates for peptide and control stimulations. Cells were incubated in ELISPOT plates in the presence of an antigen for 14-16 hours after which they are washed off and secondary biotinylated Ab (Mabtech) was added. After 2h incubation unbound secondary antibody was washed off and streptavidin conjugated alkaline phosphatase (AP) (Mabtech) was added for 1 h. Next, unbound conjugated enzyme is washed off and the assay is developed by adding BCIP/NBT substrate (Mabtech). Developed ELISPOT plates were analysed on CTL ImmunoSpot S6 Ultimate-V analyzer using Immunospot software v5.1. Responses were calculated as the difference between average numbers of spots in wells stimulated with pCCL223-12 peptide and control wells. […]

CCL22 [5] = experiment: CCL22 ELISA of ovarian cancer ascites cell supernatants after peptide stimulation; assay type: cell-based, human; conditions: ascites cells from ovarian cancer patients, IL-2, compared to HIV peptide
Method: Peripheral Blood Mononuclear Cells (PBMC) were collected from healthy individuals and cancer patients (melanoma, renal cell carcinoma and breast cancer patients). Blood samples were drawn a minimum of four weeks after termination of any kind of anti-cancer therapy. PBMC were isolated using Lymphoprep™ separation, HLA-typed and frozen in FCS with 10% DMSO. Fresh ovarian ascites was filtered with a 70 μm filter and the cells were isolated by centrifugation (1500 […], 5 min). If the ascites contained a high abundance of erythrocytes, they were removed by adding lysis-buffer (Ortho-Mune Lysing Solution) to the cells with incubation of 3-5 min. The lysis-buffer was quickly washed away and the cells cryopreserved in human serum with 10% DMSO at −140 degrees until use. The protocol was approved by the Scientific Ethics Committee for The Capital Region of Denmark and conducted in accordance with the provisions of the Declaration of Helsinki. Written informed consent from the patients was obtained before study entry.
Cell culture supernatants from PBMC, cancer cell lines and ascites cell cultures as well as siRNA transfected THP-1 cells were analyzed using Human CCL22/MDC DuoSet ELISA kit (R&D Systems) according to manufacturer's instructions. […]

K562-A2 cells = experiment: 51Cr-release assay, HLA-A2-transfected K562 cells pulsed with peptide; assay type: cell-based

MATLRVPLLVALVLLAVAIQTS (listed as Mus musculus) [mCCL22long, long murine CCL22 peptide]
IFNγ ELISPOT immune response of splenocytes of vaccinated mice (C57BL/6 mice): increased immune response

MDRLQTALLVVLVLLAVALQAT (listed as Homo sapiens) [CCL22long, Polypeptide fragment of human CCL22]
lysis of peptide-pulsed T2 cells by CCL22-specific T cells (T2 cells): recognized and killed
lysis of peptide-pulsed T2 cells by CCL22-specific T cells (T2 cells; listed as CCL22-signal peptide): lysed

RLQTALLVV (listed as Homo sapiens) [pCCL223-11, Polypeptide fragment of human CCL22]
T-cell avidity of pCCL223-12-specific T cells, peptide titration (T2 cells): reacted towards both peptides
T-cell avidity of pCCL223-12-specific T cells, peptide titration (T2 cells; listed as CCL22-2): cross-react

RLQTALLVVL (listed as Homo sapiens) [pCCL223-12, Polypeptide fragment of human CCL22]
CD4+ T cell response (IFNγ, TNFα) to peptide stimulation [1]: no response detected
CD4+ T cell response (IFNγ, TNFα) to peptide stimulation ([1]; listed as CCL22-3): no reactivity
CD8+ T cell response (IFNγ, TNFα) to peptide stimulation ([1]; listed as CCL22-3): CD8+ (Left) and not CD4+ (Right) T cells react; also recorded: secreting IFN-γ and TNF-α
CD8+ cells secreting IFNγ and TNFα in response to peptide stimulation ([1]; tetramer-isolated, expanded culture): Around 30%
IL-10 in the supernatants after stimulation (PBMCs): almost undetectable
IL-6 level compared to HIV control peptide (PBMCs; PBMCs from 11 cancer patients, one week of stimulation): significant increase
cultures with decreasing TNFα levels (PBMCs; PBMCs from cancer patients, one week of stimulation): 7 out of 11
cultures with decreasing TNFα levels (PBMCs; PBMCs from healthy donors, one week of stimulation): 7 out of 10
IFN-γ concentration versus control peptide (PBMCs; culture supernatants): no unambiguous differences
IL-1β concentration versus control peptide (PBMCs; culture supernatants): no unambiguous differences
IL-10 concentration versus control peptide (PBMCs; culture supernatants): no unambiguous differences
IL-1 induced after stimulation (PBMCs; data not shown): only one cancer patient and two healthy donors
tetramer-positive cells ([2]; after five stimulations with peptide-pulsed autologous DCs or PBMCs): small but distinct population of tetramer-positive cells
tetramer-positive cells ([2]; after tetramer isolation and expansion): clear population
lysis of peptide-pulsed T2 cells by CCL22-specific T cells (T2 cells): able to lyse
T-cell avidity of pCCL223-12-specific T cells, peptide titration (T2 cells): highest avidity
T-cell avidity of pCCL223-12-specific T cells, peptide titration (T2 cells; listed as CCL22-3): recognized better
lysis of peptide-pulsed T2 cells by CCL22-specific T cells (T2 cells; listed as CCL22-3): lysed; also recorded: specifically recognize and lyse
recognition of non-transfected K562 cells pulsed with peptide (HLA-negative K562 cells): not recognized
CCL22 concentration in supernatants compared to HIV control peptide (CCL22 [3]; PBMCs from 11 healthy donors, one week after stimulation): significantly decreased
overall decrease in CCL22 concentration compared to HIV control peptide (CCL22 [3]; PBMCs from 13 cancer patients, one week after stimulation): did not reach significance
CCL22 concentration compared to HIV control peptide (CCL22 [3]; PBMCs from cancer patients with high CCL22 expression (≥5000 pg/mL)): significant decrease
CCL22 expression in supernatant compared to HIV control peptide (CCL22 [3]; donor PBMCs with ELISPOT response, over one week, IL-2): lower
spontaneous specific T-cell reactivity, IFN-γ ELISPOT ([4]; PBMCs from 13 cancer patients and 10 healthy individuals, peptide stimulation for two weeks with low-dose IL-2): detected in a number of melanoma patients and healthy donors
overall ELISPOT responses, healthy donors versus cancer patients ([4]; peptide stimulation for two weeks with low-dose IL-2): similar
specific responses by IFNγ ELISPOT ([4]; screen of PBMCs from cancer patients): Indications for specific responses
overall CCL22 levels in supernatants (CCL22 [5]): decrease
overall CCL22 levels in supernatants (CCL22 [5]; listed as CCL22-3): affected
recognition of HLA-A2-transfected K562 cells pulsed with peptide (K562-A2 cells): only recognized
recognition of HLA-A2-transfected K562 cells pulsed with peptide (K562-A2 cells; listed as CCL22-3): recognized and killed

VALVLLAVAI (listed as Mus musculus) [mCCL22short, short murine CCL22 peptide; part of mCCL22Long]
IFNγ ELISPOT immune response of splenocytes of vaccinated mice (C57BL/6 mice): increased immune response
